Data reported in US9744142B2, “Formulations of volatile anesthetics and methods of use for reducing inflammation” (Board of Regents, The University of Texas Systems, priority 2009, dated 2017).

Test: Isoflurane remaining in uncapped vials over time, determined by weighing (volatility)
Format: physicochemical
Conditions: uncapped vial
Experimental: In the Examples that follow, the stability of isoflurane in the described compositions was determined in two ways. First, the compositions were examined for the presence of phase separation at the macroscopic level. Secondly, isoflurane content of the compositions was determined by weighing the remaining isoflurane in the composition when they were left uncapped over time. Briefly, glass vials were filled with 5-10 ml of the composition vehicle and then weighed; one of them received only vehicle (i.e., no isoflurane) and served as control. The other vials received varying amounts of isoflurane. They were left uncapped in the hood. Over time, the vials were weighed to see if the isoflurane stayed in the composition or had evaporated. The amount evaporated over time in the vehicle control was subtracted from that in the isoflurane-containing composition.
The pure form of isoflurane is a volatile anesthetic. In order to assess the volatility of isoflurane, two vials received the indicated amounts of pure form isoflurane. The vials were placed in the chemical fume hood and left uncapped. The vials were weighed at the indicated times to determine the amount of evaporated isoflurane. As it is shown in the table below 0.7893 g isoflurane was evaporated within 3 hours, while 3.4825 g isoflurane took approximately 8 hrs to evaporate completely. These amounts of isoflurane are similar to the amounts of isoflurane that were used to prepare the isoflurane compositions in the Examples that follow.

time until isoflurane was evaporated (pure isoflurane 0.7893 g): ≤ 3 h | time to evaporate completely (pure isoflurane 3.4825 g): approximately 8 hrs | 7 h (pure isoflurane 3.4825 g, 7 h, remaining iso as in the neighbouring columns): 13 | 8 h (pure isoflurane 3.4825 g, 8 h, remaining iso as in the neighbouring columns): 3
SMILES: FC(F)OC(Cl)C(F)(F)F (stereo not shown) [isoflurane]
